{"source": "patent US9995734B2", "about": "“Human T cell line assay for evaluating the immunologic identity of glatiramer acetate preparations” (Mylan Inc., priority 2013, dated 2018)", "key": {"Donor 3 GMA T-Cell Lines": {"tested_on": "Donor 3 GMA T-Cell Lines", "test": "ATP proliferation assay (CellTiter Glo), Donor 3 GMA T-cell lines, incl. reactivity to non-canonical GA peptides", "type": "cell-based, human", "settings": "for Non-Canonical Peptide Non-Reactivity: proliferation <2 times no antigen control"}, "Donor 3 COP T-Cell Lines": {"tested_on": "Donor 3 COP T-Cell Lines", "test": "ATP proliferation assay (CellTiter Glo), Donor 3 COP T-cell lines, incl. reactivity to non-canonical GA peptides", "type": "cell-based, human", "settings": "for Non-Canonical Peptide Non-Reactivity: proliferation <2 times no antigen control"}}, "data": [{"substance": "poly (Glu-Tyr; 1:1) [GT 11]", "values": [{"measurement": "Non-Canonical Peptide Non-Reactivity", "setting": "Donor 3 GMA T-Cell Lines; 165-B5G", "value": "GT 11"}, {"measurement": "Non-Canonical Peptide Non-Reactivity", "setting": "Donor 3 GMA T-Cell Lines; 165-C4G", "value": "GT 11"}, {"measurement": "Non-Canonical Peptide Non-Reactivity", "setting": "Donor 3 GMA T-Cell Lines; 165-C5G", "value": "GT 11"}, {"measurement": "Non-Canonical Peptide Non-Reactivity", "setting": "Donor 3 GMA T-Cell Lines; 165-E7G", "value": "GT 11"}, {"measurement": "Non-Canonical Peptide Non-Reactivity", "setting": "Donor 3 GMA T-Cell Lines; 165-E9G", "value": "GT 11"}, {"measurement": "Non-Canonical Peptide Non-Reactivity", "setting": "Donor 3 GMA T-Cell Lines; 165-F5G", "value": "GT 11"}, {"measurement": "Non-Canonical Peptide Non-Reactivity", "setting": "Donor 3 GMA T-Cell Lines; 165-F8G", "value": "GT 11"}, {"measurement": "Non-Canonical Peptide Non-Reactivity", "setting": "Donor 3 GMA T-Cell Lines; 165-F10G", "value": "GT 11"}, {"measurement": "Non-Canonical Peptide Non-Reactivity", "setting": "Donor 3 GMA T-Cell Lines; 165-H11G", "value": "GT 11"}, {"measurement": "Proliferation (luminescent ATP assay), Mean", "setting": "Donor 3 GMA T-Cell Lines; T-cell line 165-B5G, 1.25 μg/mL antigen, Day 55 of culturing, No Antigen Value 846", "value": 2167, "unit": "RLU"}, {"measurement": "Proliferation (luminescent ATP assay), Mean", "setting": "Donor 3 GMA T-Cell Lines; T-cell line 165-B5G, 2.5 μg/mL antigen, Day 55 of culturing, No Antigen Value 846", "value": 1957, "unit": "RLU"}, {"measurement": "Proliferation (luminescent ATP assay), Mean", "setting": "Donor 3 GMA T-Cell Lines; T-cell line 165-B5G, 5 μg/mL antigen, Day 55 of culturing, No Antigen Value 846", "value": 1353, "unit": "RLU"}, {"measurement": "Proliferation (luminescent ATP assay), Mean", "setting": "Donor 3 GMA T-Cell Lines; T-cell line 165-B5G, 10 μg/mL antigen, Day 55 of culturing, No Antigen Value 846", "value": 1191, "unit": "RLU"}, {"measurement": "Proliferation (luminescent ATP assay), Mean", "setting": "Donor 3 GMA T-Cell Lines; T-cell line 165-C5G, 1.25 μg/mL antigen, autologous B-LCL", "value": 523, "unit": "RLU"}, {"measurement": "Proliferation (luminescent ATP assay), Mean", "setting": "Donor 3 GMA T-Cell Lines; T-cell line 165-C5G, 2.5 μg/mL antigen, autologous B-LCL", "value": 620, "unit": "RLU"}, {"measurement": "Proliferation (luminescent ATP assay), Mean", "setting": "Donor 3 GMA T-Cell Lines; T-cell line 165-C5G, 5 μg/mL antigen, autologous B-LCL", "value": 428, "unit": "RLU"}, {"measurement": "Proliferation (luminescent ATP assay), Mean", "setting": "Donor 3 GMA T-Cell Lines; T-cell line 165-C5G, 10 μg/mL antigen, autologous B-LCL", "value": 471, "unit": "RLU"}, {"measurement": "Proliferation (luminescent ATP assay), Mean", "setting": "Donor 3 GMA T-Cell Lines; T-cell line 165-E7G, 1.25 μg/mL antigen, autologous B-LCL, Day 55", "value": 2821, "unit": "RLU"}, {"measurement": "Proliferation (luminescent ATP assay), Mean", "setting": "Donor 3 GMA T-Cell Lines; T-cell line 165-E7G, 2.5 μg/mL antigen, autologous B-LCL, Day 55", "value": 2914, "unit": "RLU"}, {"measurement": "Proliferation (luminescent ATP assay), Mean", "setting": "Donor 3 GMA T-Cell Lines; T-cell line 165-E7G, 5 μg/mL antigen, autologous B-LCL, Day 55", "value": 2332, "unit": "RLU"}, {"measurement": "Proliferation (luminescent ATP assay), Mean", "setting": "Donor 3 GMA T-Cell Lines; T-cell line 165-E7G, 10 μg/mL antigen, autologous B-LCL, Day 55", "value": 1848, "unit": "RLU"}, {"measurement": "Proliferation (luminescent ATP assay), Mean", "setting": "Donor 3 GMA T-Cell Lines; T-cell line 165-E9G, 1.25 μg/mL antigen, autologous B-LCL", "value": 110, "unit": "RLU"}, {"measurement": "Proliferation (luminescent ATP assay), Mean", "setting": "Donor 3 GMA T-Cell Lines; T-cell line 165-E9G, 2.5 μg/mL antigen, autologous B-LCL", "value": 119, "unit": "RLU"}, {"measurement": "Proliferation (luminescent ATP assay), Mean", "setting": "Donor 3 GMA T-Cell Lines; T-cell line 165-E9G, 5 μg/mL antigen, autologous B-LCL", "value": 103, "unit": "RLU"}, {"measurement": "Proliferation (luminescent ATP assay), Mean", "setting": "Donor 3 GMA T-Cell Lines; T-cell line 165-E9G, 10 μg/mL antigen, autologous B-LCL", "value": 96, "unit": "RLU"}, {"measurement": "Proliferation (luminescent ATP assay), Mean", "setting": "Donor 3 GMA T-Cell Lines; T-cell line 165-F5G, 1.25 μg/mL antigen, autologous B-LCL", "value": 160, "unit": "RLU"}, {"measurement": "Proliferation (luminescent ATP assay), Mean", "setting": "Donor 3 GMA T-Cell Lines; T-cell line 165-F5G, 2.5 μg/mL antigen, autologous B-LCL", "value": 124, "unit": "RLU"}, {"measurement": "Proliferation (luminescent ATP assay), Mean", "setting": "Donor 3 GMA T-Cell Lines; T-cell line 165-F5G, 5 μg/mL antigen, autologous B-LCL", "value": 124, "unit": "RLU"}, {"measurement": "Proliferation (luminescent ATP assay), Mean", "setting": "Donor 3 GMA T-Cell Lines; T-cell line 165-F5G, 10 μg/mL antigen, autologous B-LCL", "value": 158, "unit": "RLU"}, {"measurement": "Proliferation (luminescent ATP assay), Mean", "setting": "Donor 3 GMA T-Cell Lines; T-cell line 165-F10G, 1.25 μg/mL antigen, autologous B-LCL", "value": 1388, "unit": "RLU"}, {"measurement": "Proliferation (luminescent ATP assay), Mean", "setting": "Donor 3 GMA T-Cell Lines; T-cell line 165-F10G, 2.5 μg/mL antigen, autologous B-LCL", "value": 1506, "unit": "RLU"}, {"measurement": "Proliferation (luminescent ATP assay), Mean", "setting": "Donor 3 GMA T-Cell Lines; T-cell line 165-F10G, 5 μg/mL antigen, autologous B-LCL", "value": 1598, "unit": "RLU"}, {"measurement": "Proliferation (luminescent ATP assay), Mean", "setting": "Donor 3 GMA T-Cell Lines; T-cell line 165-F10G, 10 μg/mL antigen, autologous B-LCL", "value": 1294, "unit": "RLU"}, {"measurement": "Proliferation (luminescent ATP assay), Mean", "setting": "Donor 3 GMA T-Cell Lines; T-cell line 165-H11G, 1.25 μg/mL antigen, autologous B-LCL", "value": 17, "unit": "RLU"}, {"measurement": "Proliferation (luminescent ATP assay), Mean", "setting": "Donor 3 GMA T-Cell Lines; T-cell line 165-H11G, 2.5 μg/mL antigen, autologous B-LCL", "value": 354, "unit": "RLU"}, {"measurement": "Proliferation (luminescent ATP assay), Mean", "setting": "Donor 3 GMA T-Cell Lines; T-cell line 165-H11G, 5 μg/mL antigen, autologous B-LCL", "value": 352, "unit": "RLU"}, {"measurement": "Proliferation (luminescent ATP assay), Mean", "setting": "Donor 3 GMA T-Cell Lines; T-cell line 165-H11G, 10 μg/mL antigen, autologous B-LCL", "value": 308, "unit": "RLU"}, {"measurement": "Non-Canonical Peptide Non-Reactivity", "setting": "Donor 3 COP T-Cell Lines; 165-B6C", "value": "GT 11"}, {"measurement": "Non-Canonical Peptide Non-Reactivity", "setting": "Donor 3 COP T-Cell Lines; 165-B10C", "value": "GT 11"}, {"measurement": "Non-Canonical Peptide Non-Reactivity", "setting": "Donor 3 COP T-Cell Lines; 165-C4C", "value": "GT 11"}, {"measurement": "Non-Canonical Peptide Non-Reactivity", "setting": "Donor 3 COP T-Cell Lines; 165-C7C", "value": "GT 11"}, {"measurement": "Non-Canonical Peptide Non-Reactivity", "setting": "Donor 3 COP T-Cell Lines; 165-D2C", "value": "GT 11"}, {"measurement": "Non-Canonical Peptide Non-Reactivity", "setting": "Donor 3 COP T-Cell Lines; 165-D3C", "value": "GT 11"}, {"measurement": "Non-Canonical Peptide Non-Reactivity", "setting": "Donor 3 COP T-Cell Lines; 165-F3C", "value": "GT 11"}, {"measurement": "Non-Canonical Peptide Non-Reactivity", "setting": "Donor 3 COP T-Cell Lines; 165-F6C", "value": "GT 11"}, {"measurement": "Non-Canonical Peptide Non-Reactivity", "setting": "Donor 3 COP T-Cell Lines; 165-U3C (so in the source)", "value": "GT 11"}, {"measurement": "Proliferation (luminescent ATP assay), Mean", "setting": "Donor 3 COP T-Cell Lines; T-cell line 165-C4C, 1 μg/mL antigen, Day 66 of culture, 0 μg/mL 1881", "value": 2664}, {"measurement": "Proliferation (luminescent ATP assay), Mean", "setting": "Donor 3 COP T-Cell Lines; T-cell line 165-C4C, 3 μg/mL antigen, Day 66 of culture, 0 μg/mL 1881", "value": 2804}, {"measurement": "Proliferation (luminescent ATP assay), Mean", "setting": "Donor 3 COP T-Cell Lines; T-cell line 165-C4C, 10 μg/mL antigen, Day 66 of culture, 0 μg/mL 1881", "value": 2311}, {"measurement": "Proliferation (luminescent ATP assay), Mean", "setting": "Donor 3 COP T-Cell Lines; T-cell line 165-C7C, 1.25 μg/mL antigen, autologous B-LCL", "value": 346, "unit": "RLU"}, {"measurement": "Proliferation (luminescent ATP assay), Mean", "setting": "Donor 3 COP T-Cell Lines; T-cell line 165-C7C, 2.5 μg/mL antigen, autologous B-LCL", "value": 265, "unit": "RLU"}, {"measurement": "Proliferation (luminescent ATP assay), Mean", "setting": "Donor 3 COP T-Cell Lines; T-cell line 165-C7C, 5 μg/mL antigen, autologous B-LCL", "value": 255, "unit": "RLU"}, {"measurement": "Proliferation (luminescent ATP assay), Mean", "setting": "Donor 3 COP T-Cell Lines; T-cell line 165-C7C, 10 μg/mL antigen, autologous B-LCL", "value": 234, "unit": "RLU"}, {"measurement": "Proliferation (luminescent ATP assay), Mean", "setting": "Donor 3 COP T-Cell Lines; T-cell line 165-F3C, 1 μg/mL antigen, Day 77 of culture, 0 μg/mL 1563", "value": 2108}, {"measurement": "Proliferation (luminescent ATP assay), Mean", "setting": "Donor 3 COP T-Cell Lines; T-cell line 165-F3C, 3 μg/mL antigen, Day 77 of culture, 0 μg/mL 1563", "value": 2152}, {"measurement": "Proliferation (luminescent ATP assay), Mean", "setting": "Donor 3 COP T-Cell Lines; T-cell line 165-F3C, 10 μg/mL antigen, Day 77 of culture, 0 μg/mL 1563", "value": 1652}, {"measurement": "Proliferation (luminescent ATP assay), Mean", "setting": "Donor 3 COP T-Cell Lines; T-cell line 165-F6C, 1.25 μg/mL antigen, Day 76 of culture, No Antigen value 517", "value": 406}, {"measurement": "Proliferation (luminescent ATP assay), Mean", "setting": "Donor 3 COP T-Cell Lines; T-cell line 165-F6C, 2.5 μg/mL antigen, Day 76 of culture, No Antigen value 517", "value": 426}, {"measurement": "Proliferation (luminescent ATP assay), Mean", "setting": "Donor 3 COP T-Cell Lines; T-cell line 165-F6C, 5 μg/mL antigen, Day 76 of culture, No Antigen value 517", "value": 388}, {"measurement": "Proliferation (luminescent ATP assay), Mean", "setting": "Donor 3 COP T-Cell Lines; T-cell line 165-F6C, 10 μg/mL antigen, Day 76 of culture, No Antigen value 517", "value": 303}]}]}
